Counter-ions that a name gives are not always drawn. Where a SMILES comes first, the peptide text is derived from it. The star is where a group is joined. Hydrocinnamoyl = O=C(CCc1ccccc1)*; Tfa = O=C(C(F)(F)F)*
What was measured:
MMP-1 = target: T1, MMP-1 (Homo sapiens, UniProt P03956); details: cited from earlier work; for IC50: IA = inactive
T1 sequence (P03956 100-469): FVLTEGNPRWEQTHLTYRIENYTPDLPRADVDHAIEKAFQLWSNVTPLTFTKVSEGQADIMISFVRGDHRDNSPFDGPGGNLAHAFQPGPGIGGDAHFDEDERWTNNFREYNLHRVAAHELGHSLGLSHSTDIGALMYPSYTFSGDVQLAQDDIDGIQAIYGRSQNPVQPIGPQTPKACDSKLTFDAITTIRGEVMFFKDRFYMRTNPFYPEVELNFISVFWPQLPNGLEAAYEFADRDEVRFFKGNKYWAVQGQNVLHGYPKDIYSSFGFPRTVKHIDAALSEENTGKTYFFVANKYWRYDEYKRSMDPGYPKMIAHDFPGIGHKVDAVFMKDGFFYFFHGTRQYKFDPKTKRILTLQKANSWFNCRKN

MMP-8 = MMP-8 (Homo sapiens, UniProt P22894); details: cited from earlier work
MMP-2 [1] = system: MMP-2
MMP-3 = MMP-3 (Homo sapiens, UniProt P08254); details: cited from earlier work
MMP-2 [2] = details: cited from earlier work
MMP-9 = MMP-9 (Homo sapiens, UniProt P14780); details: cited from earlier work
MMP-13 = MMP-13 (Homo sapiens, UniProt P45452); details: cited from earlier work
stromelysin = details: dosed orally at 30 mg/kg in rabbits injected with stromelysin; cited from earlier work
[3] = cited from earlier work; for activity in the guinea pig model of osteoarthritis (in words): in vivo; for inhibiting femoral lesions: guinea pig model of osteoarthritis
[4] = in vivo; cited from earlier work
[5] = in vivo; cited from earlier work; remark: listed apart in the source
MMPs = details: cited from earlier work
[6] = from MBP-sensitized splenocytes; cited from earlier work

Sequence of MMP-9 (P14780 94-707, species assumed): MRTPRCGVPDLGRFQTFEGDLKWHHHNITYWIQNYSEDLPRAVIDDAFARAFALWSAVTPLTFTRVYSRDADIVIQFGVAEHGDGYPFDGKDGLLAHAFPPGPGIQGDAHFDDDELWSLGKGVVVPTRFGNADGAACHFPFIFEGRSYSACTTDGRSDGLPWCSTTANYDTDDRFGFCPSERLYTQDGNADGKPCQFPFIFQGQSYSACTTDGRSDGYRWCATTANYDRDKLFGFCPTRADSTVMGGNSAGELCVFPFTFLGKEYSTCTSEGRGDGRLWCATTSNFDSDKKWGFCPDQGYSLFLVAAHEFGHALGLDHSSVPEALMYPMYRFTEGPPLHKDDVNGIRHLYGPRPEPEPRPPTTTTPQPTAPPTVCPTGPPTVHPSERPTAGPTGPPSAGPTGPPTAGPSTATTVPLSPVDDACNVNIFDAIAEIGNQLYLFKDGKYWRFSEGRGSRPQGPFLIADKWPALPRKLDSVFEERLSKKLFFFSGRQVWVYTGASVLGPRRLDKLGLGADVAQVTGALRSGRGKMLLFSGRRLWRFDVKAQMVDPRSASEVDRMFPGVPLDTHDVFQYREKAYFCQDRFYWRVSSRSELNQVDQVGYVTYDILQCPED
Sequence of MMP-8 (P22894 101-467, species assumed): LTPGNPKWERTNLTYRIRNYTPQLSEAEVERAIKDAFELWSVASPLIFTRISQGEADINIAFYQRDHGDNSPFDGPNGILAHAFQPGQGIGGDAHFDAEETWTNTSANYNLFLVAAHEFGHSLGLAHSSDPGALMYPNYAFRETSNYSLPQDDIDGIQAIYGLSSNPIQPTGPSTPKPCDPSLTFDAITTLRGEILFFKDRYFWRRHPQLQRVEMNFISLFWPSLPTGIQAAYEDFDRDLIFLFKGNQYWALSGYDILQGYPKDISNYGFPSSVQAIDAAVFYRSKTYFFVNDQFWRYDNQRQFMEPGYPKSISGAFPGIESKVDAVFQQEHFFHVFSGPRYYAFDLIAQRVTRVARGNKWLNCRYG
Sequence of MMP-3 (P08254 100-477, species assumed): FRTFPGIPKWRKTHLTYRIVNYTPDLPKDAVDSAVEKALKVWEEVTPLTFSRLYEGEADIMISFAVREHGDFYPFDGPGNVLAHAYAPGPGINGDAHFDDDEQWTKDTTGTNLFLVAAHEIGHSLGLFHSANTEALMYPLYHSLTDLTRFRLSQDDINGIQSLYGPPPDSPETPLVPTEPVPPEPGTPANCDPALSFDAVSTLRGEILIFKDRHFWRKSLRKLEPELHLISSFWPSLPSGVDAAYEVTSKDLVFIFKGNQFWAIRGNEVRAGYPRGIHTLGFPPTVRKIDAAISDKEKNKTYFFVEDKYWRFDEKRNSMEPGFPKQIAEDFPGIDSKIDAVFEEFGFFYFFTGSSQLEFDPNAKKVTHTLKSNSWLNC

Row | Structure (SMILES) | IC50 (MMP-1) [nM] | IC50 (MMP-3) [nM] | IC50 (MMP-2 [2]) [nM] | other results
1 | CNC(=O)[C@H](Cc1ccccc1)NC(=O)[C@H](CCCCO)CC(=O)NO [Compound 5] | 64 | – | – | IC50 (MMP-8): 7 nM
2 | CCCNC(=O)CCC[C@H](CC(=O)NO)C(=O)N[C@@H](Cc1ccccc1)C(=O)NC [Compound 6] | 5100 | – | – | IC50 (MMP-8): 2 nM
3 | CNC(=O)[C@H](Cc1ccccc1)NC(=O)[C@H](CCCC(=O)NCCc1ccccc1)CC(=O)NO [Compound 7] | 1300 | – | – | IC50 (MMP-8): 32 nM
4 | CNC(=O)[C@H](Cc1ccccc1)NC(=O)[C@H](CCCOCc1ccccc1)CC(=O)NO [Compound 8] | 2270 | – | – | –
5 | CCCCCCCCCCCC[C@H](CC(=O)O)C(=O)N[C@@H](Cc1ccccc1)C(=O)NC [Compound 11] | – | – | – | MMP-1 % @ 100 µM (MMP-1; @ 100 µM): 30% @ 100 µM
6 | O=C(C[C@@H](CCCc1ccccc1)C(=O)N[C@@H](CC1CCCCC1)C(=O)NCCc1ccccc1)NO [Compound 17] | 203 | 8.3 | – | selectivity for MMP-2 over MMP-1 (MMP-2 [1]): 10,000 fold; selectivity for MMP-2 over MMP-3 (MMP-2 [1]): 100 fold
7 | O=C(C[C@@H](CCCc1ccc(Cl)cc1)C(=O)N[C@@H](CC1CCCCC1)C(=O)NCCNS(=O)(=O)N1CCOCC1)NO [Compound 18] | 385 | – | < 0.01 | IC50 (MMP-9): 0.016 nM; inhibition of MMP-13 (in words) (MMP-13): potently inhibits
8 | Cc1ccc(CCC[C@H](CC(=O)O)C(=O)N[C@@H](CC2CCCCC2)C(=O)NCCc2ccccc2)cc1 [Compound 19] | 22000 | 470 | 1 | –
9 | CCCCCCCCC(NC(C)C(=O)O)C(=O)NC(CC(C)C)C(=O)Nc1ccccc1 (stereo not drawn) [Compound 24] | > 10000 | 570 | 340 | –
10 | CC(C)CC(NC(=O)C(CCc1ccccc1)NC(CCCCN1C(=O)c2ccccc2C1=O)C(=O)O)C(=O)Nc1ccccc1 (stereo not drawn) [Compound 27] | 720 | 8 | 86 | –
11 | CNC(=O)[C@H](Cc1ccccc1)NC(=O)[C@H](CC(C)C)N[C@@H](CCN1C(=O)c2cc3ccccc3cc2C1=O)C(=O)O [Compound 28] | 20 | 91 | – | IC50 (MMP-9): 5 nM
12 | CNC(=O)[C@H](Cc1ccccc1)NC(=O)[C@H](CC(C)C)N[C@@H](CCN1C(=O)c2cc3ccccc3c(OC)c2C1=O)C(=O)O [Compound 29] | 54 | 1400 | – | IC50 (MMP-9): 7 nM
13 | CC(C)CC(NC(CCN1C(=O)c2cc3ccccc3cc2C1=O)C(=O)O)C(=O)NCCc1ccccc1 (stereo not drawn) [Compound 30] | 160 | – | > 10000 | IC50 (MMP-9): 35 nM
14 | CC(C)C[C@H](N[C@@H](CCN1C(=O)c2cc3ccccc3cc2C1=O)C(=O)O)C(=O)NCc1ccc(C(=O)O)cc1 [Compound 31] | 56 | – | 178 | IC50 (MMP-9): 74 nM
15 | CCCc1ccc(CCC(CC(CCCCN2C(=O)c3ccccc3C2=O)C(=O)O)C(=O)NC(CC(C)C)C(=O)Nc2ccccc2)cc1 (stereo not drawn) [Compound 32] | > 10000 | 0.036 | 5.7 | –
16 | NC(=O)C(Cc1ccccc1)NC(=O)C(CS)NC(=O)C(F)(F)F (stereo not drawn) [Compound 33] (Tfa-Cys-Phe-NH2; configuration not given here) | 40 | – | – | –
17 | CC(=O)NC(CS)C(=O)NC(Cc1ccccc1)C(N)=O (stereo not drawn) [Compound 34] (Ac-Cys-Phe-NH2; configuration not given here) | > 100000 | – | – | inhibition of MMP-1 (in words) (MMP-1): did not inhibit
18 | NC(=O)C(Cc1ccccc1)NC(=O)C(CS)NC(=O)CCc1ccccc1 (stereo not drawn) [Compound 35] (Hydrocinnamoyl-Cys-Phe-NH2; configuration not given here) | 3500 | – | – | IC50 (MMP-8): 38 nM
19 | Cc1ccc(CCCC(CP(=O)(O)O)C(=O)NC(CC2CCCCC2)C(=O)NCCc2ccccc2)cc1 (stereo not drawn) [Compound 37] | 17000 | 277 | 2.5 | –
20 | COc1ccc(S(=O)(=O)N(Cc2cccnc2)[C@@H](C(=O)NO)C(C)C)cc1 [Compound 40] | – | – | – | proteoglycan break down (stromelysin): blocks proteoglycan break down; activity in the guinea pig model of osteoarthritis (in words) [3]: effective
21 | O=C(CC(CCc1ccccc1)C(=O)O)c1ccc(-c2ccc(OCc3ccccc3)cc2)cc1 (stereo not drawn) [Compound 43] | – | 17 | 14 | IC50 (MMP-9): 3200 nM; inhibiting femoral lesions [3]: 37.8%; activity in the guinea pig model of osteoarthritis (in words) [3]: active
22 | O=C(CC(CCN1C(=O)c2ccccc2C1=O)C(=O)O)c1ccc(-c2ccc(OCc3ccccc3)cc2)cc1 (stereo not drawn) [Compound 44] | – | 5.7 | 0.91 | IC50 (MMP-9): 1.5 nM; inhibiting femoral lesions [3]: 53%; activity in the guinea pig model of osteoarthritis (in words) [3]: active; antimetastatic effect, tail vein metastasis model [4]: antimetastatic; antimetastatic effect, spontaneous metastasis model [5]: antimetastatic
23 | CO[C@H]1[C@H](O[C@@H]2c3c(cc4c(c3O)C(=O)c3c(O)cccc3C4=O)C(=O)[C@@](C)(O)[C@H]2OC)O[C@@H](C)[C@H](O)[C@H]1O [Compound 46, aranciamycin] | – | – | – | inhibition of MMPs (in words) (MMPs): weak inhibitors
24 | COC(=O)c1cccc2c1C(=O)c1c(C(=O)OC)cc(C(=O)O)cc1C2=O [Compound 48] | – | – | – | inhibition of MMP-1 (in words) (MMP-1): MMP-1 inhibitors
25 | CC(=O)NC1C(O)CC(Cc2cc3ccc(=O)oc3cc2OC(=O)N(C)C)C(O)C1O (stereo not drawn) [Compound 49] | – | – | – | inhibition of MMP-1 (in words) (MMP-1): weak inhibitors
26 | CNC(=O)[C@@H](NC(=O)[C@@H](CC(=O)NO)CC(C)C)C(C)(C)C [RO 31-9790] | – | – | – | protection in adoptively transferred EAE [6]: protect

From patent EP1366765A1, “Use of matrix metalloproteinase inhibitors for treating neurological disorders and promoting wound healing” (priority 1996, dated 1998)
